Assay [1] deals with sub-genomic HCV NS3-NS5B replicon genotype 1a (Huh-7 cells). In words: Replicon luciferase cell based assay, genotype 1a. Conditions: Hepatitis C virus; Huh-7 genotype 1a luciferase replicon, 48 hours; read-out: EC50 GT 1a. On the procedure: (§1) 150 μL of a 1 mM stock solution in DMSO of each test compound was transferred into in the first column of a 96 well, V-bottom microplate, to give 200 times the top concentration of the required dilution series. Aliquots of 50 μL were added to each well of the remaining rows containing 100 μL of DMSO giving a 1:3 dilution series over ten points. Columns 11 and 12 contained DMSO only for the positive and negative control, respectively. 10 μL of each well were transferred into 90 μL of DMEM medium (Invitrogen #41965-039) supplemented with 5% v/v foetal calf serum, 1% v/v non-essential amino acids solution, 100 units/ml penicillin, 100 μg/ml streptomycin and 2 mM L-glutamine to give 20 times the top concentration of the required dilution series.
(§2) Suspensions were prepared from cultures of Huh-7 cells stably transfected with sub-genomic HCV NS3-NS5B replicons of either genotype 1b (the ET subline described by Pietschmann, T., Lohmann, V., Kaul, A., Krieger, N., Rinck, G., Rutter, G., Strand, D. & Bartenschlager, R., Journal of Virology, 2002, 76, 4008-4021), genotype 1a (subline 1.19 constructed in-house from H77 SG-Neo containing adaptive mutations P1496L and S2204I as described by Blight, K. J., McKeating, J. A., Marcotrigiano, J., and Rice, C. M. Journal of Virology, 2003, 77, 3180-3190), genotype 1b C316N (constructed in-house by site directed mutagenesis of the NS5B gene of the ET subline), or genotype 1a C316Y (constructed in-house by site directed mutagenesis of the NS5B gene of H77 SG-Neo containing adaptive mutations P1496L and S2204I as described by Blight, K. J., McKeating, J. A., Marcotrigiano, J., and Rice, C. M. Journal of Virology, 2003, 77, 3180-3190) linked to a firefly luciferase reporter gene. Monolayers nearing confluency were stripped from growth flasks with versene-trypsin solution and the cells re-suspended in assay medium comprising DMEM. 95 μL of suspension containing either 15,000 cells (genotype 1b luciferase replicon) or 20,000 cells (genotype 1a luciferase replicon) were added to all wells of a 96 well plate (Perkin Elmer, #6005686), except medium controls in column 12 of the assay plate. The cell suspension was dosed with 5 μL of compound solution and the plate was incubated for 48 hours at 37° C. in a 5% CO2 atmosphere.
(§3) For toxicity the cells in one plate were treated with Cell Titer Glo (Promega, #G7573). A solution of Cell Titer Glo was prepared according to the manufacturer's instructions, and 100 μL added to each well. The plate was then read for luminescence on an Envision. For potency a solution of Steady Glo (Promega, #E2550) was prepared according to the manufacturer's instructions and 100 μL added to each well. After a twenty minute incubation the plate was then read for luminescence on an Envision.
(§4) Potency: The luminescence values from all compound-free wells containing cells were averaged to obtain a positive control value. The mean luminescence value from the compound-free wells that had received no cells was used to provide the negative (background) control value. The readings from the wells at each compound concentration were taken and after the subtraction of the mean background from all values, were expressed as a percentage of the positive control signal. The quantifiable and specific reduction of luciferase signal in the presence of a drug is a direct measure of replicon inhibition. BioAssay Enterprise (CamebridgeSoft) with the XC50 module for curve fitting was used to plot the curve of percentage inhibition against compound concentration and derive the 50% inhibitory concentration (EC50) for the compound. EC50 is the effective concentration, that is, the concentration of compound where 50% maximal effect is observed. The EC50 values of two identical plates were averaged. The results are presented in Table 1 as EC50 for genotypes (GT) 1a, 1b, 1b 316N and 1a 316Y.

For assay [2], the system named is sub-genomic HCV NS3-NS5B replicon genotype 1b C316N (Huh-7 cells). In words: Replicon luciferase cell based assay, genotype 1b C316N. Conditions: Hepatitis C virus, Huh-7, 48 h, read-out: EC50 1b 316N. The protocol:
as §1, §2, §3, §4
Background: In antiviral work, replicon cells carry a viral genome segment that copies itself.

In assay [3] the test system is sub-genomic HCV NS3-NS5B replicon genotype 1b (Huh-7 cells). In words: Replicon luciferase cell based assay, genotype 1b. Conditions: Hepatitis C virus; Huh-7 genotype 1b luciferase replicon, 48 hours; read-out: EC50 GT1b. On the procedure:
as §1, §2, §3, §4

Assay [4] deals with sub-genomic HCV NS3-NS5B replicon genotype 1a C316Y (Huh-7 cells). Description: Replicon luciferase cell based assay, genotype 1a C316Y. Conditions: Hepatitis C virus, Huh-7, 48 h, read-out: EC50 1a 316Y. On the procedure:
as §1, §2, §3, §4

On to `CNC(=O)c1c(-c2ccc(F)cc2)oc2cc(N(c3ccc(B(O)O)c(C(F)(F)F)c3)S(C)(=O)=O)c(C3CC3)cc12` [Example 10, (4-(N-(5-cyclopropyl-2-(4-fluorophenyl)-3-(methylcarbamoyl)benzofuran-6-yl)methylsulfonamido)-2-(trifluoromethyl)phenyl)boronic acid], for which the 50% effective concentration (EC50) fell in the range of 1 to 10 nM in assay [1], 1 to 10 nM in assay [2], 1 to 10 nM in assay [3] and 11 to 200 nM in assay [4].

On to `CNC(=O)c1c(-c2ccc(F)cc2)oc2cc(N(c3ccc(B(O)O)c(C#N)c3)S(C)(=O)=O)c(C3CC3)cc12` [Example 12, (2-cyano-4-(N-(5-cyclopropyl-2-(4-fluorophenyl)-3-(methylcarbamoyl)benzofuran-6-yl)methylsulfonamido)phenyl)boronic acid], for which the EC50 in assay [1] lay in the range of 1 to 10 nM; in assay [2] it was 1 to 10 nM; in assay [3] it was 1 to 10 nM; in assay [4], 11 to 200 nM.

In the case of `CS(=O)(=O)N(c1ccc(B(O)O)c(Cl)c1)c1cc2oc(-c3ccc(Cl)cc3)c(C(N)=O)c2cc1C1CC1` [Example 14, (4-(N-(3-carbamoyl-2-(4-chlorophenyl)-5-cyclopropylbenzofuran-6-yl)methylsulfonamido)-2-chlorophenyl)boronic acid], the EC50 in assay [1] fell in the range of 1 to 10 nM; in assay [2], 1 to 10 nM; in assay [3], 1 to 10 nM; in assay [4] it was 11 to 200 nM.

On to `CNC(=O)c1c(-c2ccc(F)cc2)oc2cc(N(c3ccc(B(O)O)c(S(C)(=O)=O)c3)S(C)(=O)=O)c(C3CC3)cc12` [Example 16, (4-(N-(5-cyclopropyl-2-(4-fluorophenyl)-3-(methylcarbamoyl)benzofuran-6-yl)methylsulfonamido)-2-(methylsulfonyl)phenyl)boronic acid], for which the concentration giving a half-maximal response (EC50) is 1 to 10 nM in assay [1], 11 to 200 nM in assay [2], 1 to 10 nM in assay [3] and 11 to 200 nM in assay [4].

With `CNC(=O)c1c(-c2ccc(F)cc2)oc2cc(N(c3ccc(OCB(O)O)c(Cl)c3)S(C)(=O)=O)c(C3CC3)cc12` [Example 19, ((2-Chloro-4-(N-(5-cyclopropyl-2-(4-fluorophenyl)-3-(methylcarbamoyl)benzofuran-6-yl)methylsulfonamido)phenoxy)methyl)boronic acid], the EC50 in assay [1], in assay [2], in assay [3] and in assay [4] was 1 to 10 nM throughout.

On to `CNC(=O)c1c(-c2ccc(F)cc2)oc2cc(N(c3ccc4c(c3)COB4O)S(C)(=O)=O)c(C3CC3)cc12` [Example 20, 5-Cyclopropyl-2-(4-fluorophenyl)-6-(N-(1-hydroxy-1,3-dihydrobenzo[c][1,2]oxaborol-5-yl)methylsulfonamido)-N-methylbenzofuran-3-carboxamide], for which the EC50 in assay [1] was in the range of 1 to 10 nM; in assay [2] it was 1 to 10 nM; in assay [3], 1 to 10 nM; in assay [4] it was 11 to 200 nM.

On to `CNC(=O)c1c(-c2ccc(Cl)cc2)oc2cc(N(c3ccc(B(O)O)c(C#N)c3)S(C)(=O)=O)c(C3CC3)cc12` [Example 21, (4-(N-(2-(4-Chlorophenyl)-5-cyclopropyl-3-(methylcarbamoyl)benzofuran-6-yl)methylsulfonamido)-2-cyanophenyl)boronic acid], for which the EC50 in assay [1], in assay [2], in assay [3] and in assay [4] was 1 to 10 nM throughout.

Turning to `CNC(=O)c1c(-c2ccc(F)cc2)oc2cc(N(c3ccc(B4OC(C)(C)C(C)(C)O4)c(C)c3)S(C)(=O)=O)c(C3CC3)cc12` [Example 22, 5-Cyclopropyl-2-(4-fluorophenyl)-N-methyl-6-(N-(3-methyl-4-(4,4,5,5-tetramethyl-1,3,2-dioxaborolan-2-yl)phenyl)methylsulfonamido)benzofuran-3-carboxamide], the EC50 in assay [1] is 1 to 10 nM; in assay [2] it was 1 to 10 nM; in assay [3] it was 1 to 10 nM; in assay [4] it was 200 to 1000 nM.

For `CNC(=O)c1c(-c2ccc(F)cc2)oc2cc(N(c3ccc(CCB(O)O)c(Cl)c3)S(C)(=O)=O)c(C3CC3)cc12` [Example 23, (2-Chloro-4-(N-(5-cyclopropyl-2-(4-fluorophenyl)-3-(methylcarbamoyl)benzofuran-6-yl)methylsulfonamido)phenethyl)boronic acid], the EC50 in assay [1] is 1 to 10 nM; in assay [2], 11 to 200 nM; in assay [3] it was 1 to 10 nM; in assay [4], 11 to 200 nM.

Turning to `CNC(=O)c1c(-c2ccc(F)cc2)oc2cc(N(c3cc(F)c4c(c3)COB4O)S(C)(=O)=O)c(C3CC3)cc12` [Example 24, 5-Cyclopropyl-6-(N-(7-fluoro-1-hydroxy-1,3-dihydrobenzo[c][1,2]oxaborol-5-yl)methylsulfonamido)-2-(4-fluorophenyl)-N-methylbenzofuran-3-carboxamide], the EC50 in assay [1] fell in the range of 1 to 10 nM; in assay [2], 1 to 10 nM; in assay [3], 1 to 10 nM; in assay [4], 11 to 200 nM.

In the case of `CNC(=O)c1c(-c2ccc(F)cc2)oc2cc(N(c3ccc(C4COB(O)C4)c(Cl)c3)S(C)(=O)=O)c(C3CC3)cc12` (stereo not shown) [Example 25, 6-(N-(3-Chloro-4-(2-hydroxy-1,2-oxaborolan-4-yl)phenyl)methylsulfonamido)-5-cyclopropyl-2-(4-fluorophenyl)-N-methylbenzofuran-3-carboxamide], the concentration giving a half-maximal response (EC50) lay within 1 to 10 nM in assay [1], 11 to 200 nM in assay [2], 1 to 10 nM in assay [3] and 11 to 200 nM in assay [4].

For the compound `CNC(=O)c1c(-c2ccc(F)cc2)oc2cc(N(c3cccc(CCB(O)O)c3)S(C)(=O)=O)c(C3CC3)cc12` [Example 26, (3-(N-(5-Cyclopropyl-2-(4-fluorophenyl)-3-(methylcarbamoyl)benzofuran-6-yl)methylsulfonamido)phenethyl)boronic acid], the EC50 in assay [1] fell in the range of 1 to 10 nM; in assay [2] it was 11 to 200 nM; in assay [3], 1 to 10 nM; in assay [4], 200 to 1000 nM.

On to `CNC(=O)c1c(-c2ccc(F)cc2)oc2cc(N(c3ccc(C4CCB(O)O4)c(Cl)c3)S(C)(=O)=O)c(C3CC3)cc12` (stereo not shown) [Example 27, 6-(N-(3-Chloro-4-(2-hydroxy-1,2-oxaborolan-5-yl)phenyl)methylsulfonamido)-5-cyclopropyl-2-(4-fluorophenyl)-N-methylbenzofuran-3-carboxamide], for which the EC50 lay in the range of 1 to 10 nM in assay [1], 11 to 200 nM in assay [2], 1 to 10 nM in assay [3] and 11 to 200 nM in assay [4].

Usually EC50 stands for the concentration that produces a half-maximal response.

(Values after patent publication US9682999B2, “Benzofuran compounds for the treatment of hepatitis C virus infections” (Glaxo Group Limited, priority 2011, dated 2017).)
